Results: patent US20190315806A1, “POLYMYXIN DERIVATIVE, PREPARATION METHOD AND APPLICATION THEREOF” (priority 2016, published 2019)
≈ marks a conversion by molar mass, not a printed value. Where a SMILES comes first, the peptide text is derived from it. Bridges are numbered along the chain shown (N, C = ends). [ ]: non-standard residue; d: D form. The star is where a group is joined. Heptanoyl(6-Me) = CC(C)CCCCC(=O)*; Nonanoyl = CCCCCCCCC(=O)*; X2 = CC[C@H](C)CCCCC(=O)*; dDab = NCC[C@@H](N)C(=O)O; Heptanoyl = CCCCCCC(=O)*; Octanoyl = CCCCCCCC(=O)*; Dab = NCC[C@H](N)C(=O)O; Nva = CCC[C@H](N)C(=O)O; X1 = CCCCCC(=O)CC(=O)*

Columns and labels:
Type in all cases: cell-based
[1] = Nephrotoxicity test, renal cytotoxicity by MTT method; details: African green monkey
Protocol: African green monkey kidney cells (Vero cells) were cultured in MEM medium (Hyclone), 10% fetal calf serum (Invitrogen) was added before use, cultured at 37° C. under 5% CO2.
Experiment was carried out using MTT method. After digestion, cells in logarithmic growth phase were counted, then the cells were inoculated in a 96-well culture plate. After incubation for 24 h to be adherent, cells were treated with a concentration gradient of a compound of the invention (e.g., a compound prepared in the Embodiments) and the controls. After 72 h, the culture solution was removed, 100 uL of MTT reagent at a concentration of 0.5 mg/ml was added, the medium was removed after incubating for 3 hours in a 37° C. incubator. Add 150 μL DMSO solvent to each well, mix for 3 min, after which the absorbance at 570 nm (A) was measured with a microplate reader.
Cell viability %=(Adosed cell−Abackground)/(Acontrol cell−Abackground)×100%. The average value of 3 parallel wells was taken for each detection point, and the inhibition curve was drawn to calculate the IC50 value.
The African green monkey kidney cells (Vero cells) used in the experiment were from the Cell Resource Center of the Institute of Basic Medicine, Chinese Academy of Medical Sciences.

[2] = test system: Klebsiella pneumoniae ATCC BAA-2146 (NDM-1); assay: Antibacterial activity, MIC by dish double dilution method; details: ATCC BAA-2146
In short: (§1)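 Overnight broth cultures were spotted at 10^4 CFU per dot onto agar plates holding two-fold compound dilutions (final 0.03–128 μg/mL), following CLSI. Plates were read after 18–24 h at 35 °C, with the lowest colony-free concentration taken as MIC.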

[3] = test system: Acinetobacter baumannii ATCC 19606; details: ATCC 19606
In short: as §1

[4] = test system: Pseudomonas aeruginosa ATCC 27853; details: ATCC 27853
In short: as §1

[5] = test system: Staphylococcus epidermidis ATCC 12228; details: ATCC 12228
In short: as §1

[6] = test system: Escherichia coli ATCC 25922; details: ATCC 25922
In short: as §1

CCCCCCCCC(=O)N[C@@H](CCN)C(=O)N[C@H](C(=O)N[C@@H](CCN)C(=O)N[C@H]1CCNC(=O)[C@H]([C@@H](C)O)NC(=O)[C@H](CCN)NC(=O)[C@H](CCN)NC(=O)[C@H](CC(C)C)NC(=O)[C@@H](Cc2ccccc2)NC(=O)[C@H](CCN)NC1=O)[C@@H](C)O [Compound 46, nonanoyl-Dab-Thr-Dab-ring(4-10)[Dab-Dab-D-Phe-Leu-Dab-Dab-Thr]] (Nonanoyl-[Dab]T[Dab][Dab][Dab][dF]L[Dab][Dab]T; lactam 4-C)
IC50 at 72 h [1]: 33.1 ± 2.64 mg/L (≈ 27.5 µM) | MIC K. pneumoniae ATCC BAA-2146 (NDM-1) [2]: 2 mg/L (≈ 1.66 µM) | MIC A. baumannii ATCC 19606 [3]: 1 mg/L (≈ 0.831 µM) | MIC P. aeruginosa ATCC 27853 [4]: 2 mg/L (≈ 1.66 µM) | MIC S. epidermidis ATCC 12228 [5]: 32 mg/L (≈ 26.6 µM) | MIC E. coli ATCC 25922 [6]: 1 mg/L (≈ 0.831 µM)

CCCCCC(=O)CC(=O)N[C@@H](CCN)C(=O)N[C@H](C(=O)N[C@@H](CCN)C(=O)N[C@H]1CCNC(=O)[C@H]([C@@H](C)O)NC(=O)[C@H](CCN)NC(=O)[C@H](CCN)NC(=O)[C@H](CC(C)C)NC(=O)[C@@H](Cc2ccccc2)NC(=O)[C@H](CCN)NC1=O)[C@@H](C)O [Compound 5, 3-oxooctanoyl-Dab-Thr-Dab-ring(4-10)[Dab-Dab-D-Phe-Lue-Dab-Dab-Thr]] (X1-[Dab]T[Dab][Dab][Dab][dF]L[Dab][Dab]T; lactam 4-C)
IC50 at 72 h [1]: 93.7 ± 7.38 mg/L (≈ 77.9 µM) | MIC K. pneumoniae ATCC BAA-2146 (NDM-1) [2]: 0.5 mg/L (≈ 0.415 µM) | MIC A. baumannii ATCC 19606 [3]: 2 mg/L (≈ 1.66 µM) | MIC P. aeruginosa ATCC 27853 [4]: 1 mg/L (≈ 0.831 µM) | MIC S. epidermidis ATCC 12228 [5]: 32 mg/L (≈ 26.6 µM) | MIC E. coli ATCC 25922 [6]: 0.5 mg/L (≈ 0.415 µM)

CC[C@H](C)CCCCC(=O)N[C@@H](CCN)C(=O)N[C@H](C(=O)N[C@H](CCN)C(=O)N[C@H]1CCNC(=O)[C@H]([C@@H](C)O)NC(=O)[C@H](CCN)NC(=O)[C@H](CCN)NC(=O)[C@H]([C@@H](C)O)NC(=O)[C@@H](Cc2ccccc2)NC(=O)[C@H](CCN)NC1=O)[C@@H](C)O [Compound 143, (S)-6-methyloctanoyl-Dab-Thr-D-Dab-ring(4-10)[Dab-Dab-D-Phe-Thr-Dab-Dab-Thr]] (X2-[Dab]T[dDab][Dab][Dab][dF]T[Dab][Dab]T; lactam 4-C)
IC50 at 72 h [1]: 142 ± 15.2 mg/L (≈ 119 µM) | MIC K. pneumoniae ATCC BAA-2146 (NDM-1) [2]: 1 mg/L (≈ 0.839 µM) | MIC A. baumannii ATCC 19606 [3]: 1 mg/L (≈ 0.839 µM) | MIC P. aeruginosa ATCC 27853 [4]: 1 mg/L (≈ 0.839 µM) | MIC S. epidermidis ATCC 12228 [5]: >128 mg/L | MIC E. coli ATCC 25922 [6]: 0.5 mg/L (≈ 0.42 µM)

CCC[C@@H]1NC(=O)[C@@H](CC(C)C)NC(=O)[C@H](CCN)NC(=O)[C@@H](NC(=O)[C@H](CCN)NC(=O)[C@@H](NC(=O)[C@H](CCN)NC(=O)CCCC[C@@H](C)CC)[C@@H](C)O)CCNC(=O)[C@H]([C@@H](C)O)NC(=O)[C@H](CCN)NC(=O)[C@H](CCN)NC1=O [Compound 73, (S)-6-methyloctanoyl-Dab-Thr-Dab-ring(4-10)[Dab-Dab-D-Leu-Nva-Dab-Dab-Thr]] (X2-[Dab]T[Dab][Dab][Dab][dL][Nva][Dab][Dab]T; lactam 4-C)
IC50 at 72 h [1]: 108 ± 9.16 mg/L (≈ 93.9 µM) | MIC K. pneumoniae ATCC BAA-2146 (NDM-1) [2]: 1 mg/L (≈ 0.865 µM) | MIC A. baumannii ATCC 19606 [3]: 1 mg/L (≈ 0.865 µM) | MIC P. aeruginosa ATCC 27853 [4]: 1 mg/L (≈ 0.865 µM) | MIC S. epidermidis ATCC 12228 [5]: 128 mg/L (≈ 111 µM) | MIC E. coli ATCC 25922 [6]: 1 mg/L (≈ 0.865 µM)

CC(C)CCCCC(=O)N[C@@H](CCN)C(=O)N[C@H](C(=O)N[C@H](CO)C(=O)N[C@H]1CCNC(=O)[C@H]([C@@H](C)O)NC(=O)[C@H](CCN)NC(=O)[C@H](CCN)NC(=O)[C@H]([C@@H](C)O)NC(=O)[C@@H](CC(C)C)NC(=O)[C@H](CCN)NC1=O)[C@@H](C)O [Compound 59, 6-methylheptanoyl-Dab-Thr-D-Ser-ring(4-10)[Dab-Dab-D-Leu-Thr-Dab-Dab-Thr]] ({Heptanoyl(6-Me)}-[Dab]T[dS][Dab][Dab][dL]T[Dab][Dab]T; lactam 4-C)
IC50 at 72 h [1]: 318 ± 25.6 mg/L (≈ 281 µM) | MIC K. pneumoniae ATCC BAA-2146 (NDM-1) [2]: 0.5 mg/L (≈ 0.442 µM) | MIC A. baumannii ATCC 19606 [3]: 0.12 mg/L (≈ 0.106 µM) | MIC P. aeruginosa ATCC 27853 [4]: 2 mg/L (≈ 1.77 µM) | MIC S. epidermidis ATCC 12228 [5]: >128 mg/L | MIC E. coli ATCC 25922 [6]: 0.25 mg/L (≈ 0.221 µM)

CC(C)CCCCC(=O)N[C@@H](CCN)C(=O)N[C@H](C(=O)N[C@H](CO)C(=O)N[C@H]1CCNC(=O)[C@H]([C@@H](C)O)NC(=O)[C@H](CCN)NC(=O)[C@H](CCN)NC(=O)[C@H]([C@@H](C)O)NC(=O)[C@@H](Cc2ccccc2)NC(=O)[C@H](CCN)NC1=O)[C@@H](C)O [Compound 116, 6-methylheptanoyl-Dab-Thr-D-Ser-ring(4-10)[Dab-Dab-D-Phe-Thr-Dab-Dab-Thr]] ({Heptanoyl(6-Me)}-[Dab]T[dS][Dab][Dab][dF]T[Dab][Dab]T; lactam 4-C)
IC50 at 72 h [1]: > 500 mg/L | MIC K. pneumoniae ATCC BAA-2146 (NDM-1) [2]: 1 mg/L (≈ 0.859 µM) | MIC A. baumannii ATCC 19606 [3]: 0.25 mg/L (≈ 0.215 µM) | MIC P. aeruginosa ATCC 27853 [4]: 2 mg/L (≈ 1.72 µM) | MIC S. epidermidis ATCC 12228 [5]: >128 mg/L | MIC E. coli ATCC 25922 [6]: 0.25 mg/L (≈ 0.215 µM)

CC(C)CCCCC(=O)N[C@@H](CCN)C(=O)N[C@H](C(=O)N[C@H](CCN)C(=O)N[C@H]1CCNC(=O)[C@H]([C@@H](C)O)NC(=O)[C@H](CCN)NC(=O)[C@H](CCN)NC(=O)[C@H]([C@@H](C)O)NC(=O)[C@@H](CC(C)C)NC(=O)[C@H](CCN)NC1=O)[C@@H](C)O [Compound 31, 6-methylheptanoyl-Dab-Thr-D-Dab-ring(4-10)[Dab-Dab-D-Leu-Thr-Dab-Dab-Thr]] ({Heptanoyl(6-Me)}-[Dab]T[dDab][Dab][Dab][dL]T[Dab][Dab]T; lactam 4-C)
IC50 at 72 h [1]: 288 ± 23.3 mg/L (≈ 252 µM) | MIC K. pneumoniae ATCC BAA-2146 (NDM-1) [2]: 0.5 mg/L (≈ 0.437 µM) | MIC A. baumannii ATCC 19606 [3]: 0.5 mg/L (≈ 0.437 µM) | MIC P. aeruginosa ATCC 27853 [4]: 1 mg/L (≈ 0.875 µM) | MIC S. epidermidis ATCC 12228 [5]: >128 mg/L | MIC E. coli ATCC 25922 [6]: 0.5 mg/L (≈ 0.437 µM)

CC[C@H](C)CCCCC(=O)N[C@@H](CCN)C(=O)N[C@H](C(=O)N[C@H](CCN)C(=O)N[C@H]1CCNC(=O)[C@H]([C@@H](C)O)NC(=O)[C@H](CCN)NC(=O)[C@H](CCN)NC(=O)[C@H]([C@@H](C)O)NC(=O)[C@@H](CC(C)C)NC(=O)[C@H](CCN)NC1=O)[C@@H](C)O [Compound 30, (S)-6-methyloctanoyl-Dab-Thr-D-Dab-ring(4-10)[Dab-Dab-D-Leu-Thr-Dab-Dab-Thr]] (X2-[Dab]T[dDab][Dab][Dab][dL]T[Dab][Dab]T; lactam 4-C)
IC50 at 72 h [1]: 145 ± 12.1 mg/L (≈ 125 µM) | MIC K. pneumoniae ATCC BAA-2146 (NDM-1) [2]: 1 mg/L (≈ 0.864 µM) | MIC A. baumannii ATCC 19606 [3]: 1 mg/L (≈ 0.864 µM) | MIC P. aeruginosa ATCC 27853 [4]: 1 mg/L (≈ 0.864 µM) | MIC S. epidermidis ATCC 12228 [5]: >128 mg/L | MIC E. coli ATCC 25922 [6]: 0.5 mg/L (≈ 0.432 µM)

CCCCCCC(=O)N[C@@H](CCN)C(=O)N[C@H](C(=O)N[C@@H](CCN)C(=O)N[C@H]1CCNC(=O)[C@H]([C@@H](C)O)NC(=O)[C@H](CCN)NC(=O)[C@H](CCN)NC(=O)[C@H](CC(C)C)NC(=O)[C@@H](CC(C)C)NC(=O)[C@H](CCN)NC1=O)[C@@H](C)O [Compound 82, heptanoyl-Dab-Thr-Dab-ring(4-10)[Dab-Dab-D-Leu-Leu-Dab-Dab-Thr]] (Heptanoyl-[Dab]T[Dab][Dab][Dab][dL]L[Dab][Dab]T; lactam 4-C)
IC50 at 72 h [1]: 216 ± 16.1 mg/L (≈ 189 µM) | MIC K. pneumoniae ATCC BAA-2146 (NDM-1) [2]: 0.5 mg/L (≈ 0.438 µM) | MIC A. baumannii ATCC 19606 [3]: 2 mg/L (≈ 1.75 µM) | MIC P. aeruginosa ATCC 27853 [4]: 1 mg/L (≈ 0.876 µM) | MIC S. epidermidis ATCC 12228 [5]: >128 mg/L | MIC E. coli ATCC 25922 [6]: 1 mg/L (≈ 0.876 µM)

CCCCCCCC(=O)N[C@@H](CCN)C(=O)N[C@H](C(=O)N[C@@H](CCN)C(=O)N[C@H]1CCNC(=O)[C@H]([C@@H](C)O)NC(=O)[C@H](CCN)NC(=O)[C@H](CCN)NC(=O)[C@H](CC(C)C)NC(=O)[C@@H](Cc2ccccc2)NC(=O)[C@H](CCN)NC1=O)[C@@H](C)O [Compound 44, octanoyl-Dab-Thr-Dab-ring(4-10)[Dab-Dab-D-Phe-Leu-Dab-Dab-Thr]] (Octanoyl-[Dab]T[Dab][Dab][Dab][dF]L[Dab][Dab]T; lactam 4-C)
IC50 at 72 h [1]: 86.4 ± 8.31 mg/L (≈ 72.6 µM) | MIC K. pneumoniae ATCC BAA-2146 (NDM-1) [2]: 1 mg/L (≈ 0.841 µM) | MIC A. baumannii ATCC 19606 [3]: 0.5 mg/L (≈ 0.42 µM) | MIC P. aeruginosa ATCC 27853 [4]: 1 mg/L (≈ 0.841 µM) | MIC S. epidermidis ATCC 12228 [5]: 32 mg/L (≈ 26.9 µM) | MIC E. coli ATCC 25922 [6]: 0.5 mg/L (≈ 0.42 µM)
